Data: patent US8192962B2, “Processes for detecting toxic substances” (Daikin Industries, Ltd., priority 2001, dated 2012)

System: Transport facilitation protein genes
Assay: DNA chip mRNA expression in yeast, transport facilitation protein genes (Table 5)
Assay type: cell-based, Saccharomyces cerevisiae S288C
Method in brief: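 Ratios compare mRNA levels in stressed and control S. cerevisiae. Each toxicant was applied for two hours to log-phase cultures at 25° C. at a sub-lethal, growth-inhibiting level; fluorescent cDNA (Cy3- or Cy5-dUTP) was hybridized to a genome-wide yeast chip for over 12 h at 65° C.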

In the case of COc1cc(CNC(=O)CCCCC=CC(C)C)ccc1O [(12), 8-methyl-N-vanillyl-6-nonenamide], the “The level of expressed mRNA in the presence of chemical substance/The level of expressed mRNA in the absence of chemical substance” value (yeast gene YBL030C) was 0.9, the “The level of expressed mRNA in the presence of chemical substance/The level of expressed mRNA in the absence of chemical substance” value (yeast gene YBL099W) was 1.0 and the “The level of expressed mRNA in the presence of chemical substance/The level of expressed mRNA in the absence of chemical substance” value (yeast gene YBR052C) was 1.3. The “The level of expressed mRNA in the presence of chemical substance/The level of expressed mRNA in the absence of chemical substance” value (yeast gene YBR068C) was 0.8, the “The level of expressed mRNA in the presence of chemical substance/The level of expressed mRNA in the absence of chemical substance” value (yeast gene YBR127C) was 0.9 and the “The level of expressed mRNA in the presence of chemical substance/The level of expressed mRNA in the absence of chemical substance” value (yeast gene YBR132C) was 1.0. For the same compound, the “The level of expressed mRNA in the presence of chemical substance/The level of expressed mRNA in the absence of chemical substance” value (yeast gene YBR207W) was 0.9, the “The level of expressed mRNA in the presence of chemical substance/The level of expressed mRNA in the absence of chemical substance” value (yeast gene YBR293W) was 1.0 and the “The level of expressed mRNA in the presence of chemical substance/The level of expressed mRNA in the absence of chemical substance” value (yeast gene YBR294W) was 1.0. The “The level of expressed mRNA in the presence of chemical substance/The level of expressed mRNA in the absence of chemical substance” value (yeast gene YBR295W) was 0.9, the “The level of expressed mRNA in the presence of chemical substance/The level of expressed mRNA in the absence of chemical substance” value (yeast gene YBR298C) was 1.1 and the “The level of expressed mRNA in the presence of chemical substance/The level of expressed mRNA in the absence of chemical substance” value (yeast gene YCL025C) was 1.1. For the same compound, the “The level of expressed mRNA in the presence of chemical substance/The level of expressed mRNA in the absence of chemical substance” value (yeast gene YCL038C) was 1.3, the “The level of expressed mRNA in the presence of chemical substance/The level of expressed mRNA in the absence of chemical substance” value (yeast gene YCR024C-A) was 1.0 and the “The level of expressed mRNA in the presence of chemical substance/The level of expressed mRNA in the absence of chemical substance” value (yeast gene YCR037C) was 0.7. The “The level of expressed mRNA in the presence of chemical substance/The level of expressed mRNA in the absence of chemical substance” value (yeast gene YCR098C) was 1.3, the “The level of expressed mRNA in the presence of chemical substance/The level of expressed mRNA in the absence of chemical substance” value (yeast gene YDL128W) was 0.9 and the “The level of expressed mRNA in the presence of chemical substance/The level of expressed mRNA in the absence of chemical substance” value (yeast gene YDL198C) was 1.2. The “The level of expressed mRNA in the presence of chemical substance/The level of expressed mRNA in the absence of chemical substance” value (yeast gene YDL210W) was 0.8, the “The level of expressed mRNA in the presence of chemical substance/The level of expressed mRNA in the absence of chemical substance” value (yeast gene YDL245C) was 1.0 and the “The level of expressed mRNA in the presence of chemical substance/The level of expressed mRNA in the absence of chemical substance” value (yeast gene YDR038C) was 0.7. The “The level of expressed mRNA in the presence of chemical substance/The level of expressed mRNA in the absence of chemical substance” value (yeast gene YDR039C) was 0.8, the “The level of expressed mRNA in the presence of chemical substance/The level of expressed mRNA in the absence of chemical substance” value (yeast gene YDR086C) was 0.7 and the “The level of expressed mRNA in the presence of chemical substance/The level of expressed mRNA in the absence of chemical substance” value (yeast gene YDR270W) was 1.0. The “The level of expressed mRNA in the presence of chemical substance/The level of expressed mRNA in the absence of chemical substance” value (yeast gene YDR298C) was 1.1, the “The level of expressed mRNA in the presence of chemical substance/The level of expressed mRNA in the absence of chemical substance” value (yeast gene YDR342C) was 1.0 and the “The level of expressed mRNA in the presence of chemical substance/The level of expressed mRNA in the absence of chemical substance” value (yeast gene YDR343C) was 1.0. For the same compound, the “The level of expressed mRNA in the presence of chemical substance/The level of expressed mRNA in the absence of chemical substance” value (yeast gene YDR345C) was 1.4, the “The level of expressed mRNA in the presence of chemical substance/The level of expressed mRNA in the absence of chemical substance” value (yeast gene YDR387C) was 0.9 and the “The level of expressed mRNA in the presence of chemical substance/The level of expressed mRNA in the absence of chemical substance” value (yeast gene YDR497C) was 0.9. For the same compound, the “The level of expressed mRNA in the presence of chemical substance/The level of expressed mRNA in the absence of chemical substance” value (yeast gene YEL027W) was 0.9, the “The level of expressed mRNA in the presence of chemical substance/The level of expressed mRNA in the absence of chemical substance” value (yeast gene YEL063C) was 1.1 and the “The level of expressed mRNA in the presence of chemical substance/The level of expressed mRNA in the absence of chemical substance” value (yeast gene YEL065W) was 1.7. For the same compound, the “The level of expressed mRNA in the presence of chemical substance/The level of expressed mRNA in the absence of chemical substance” value (yeast gene YER053C) was 1.7, the “The level of expressed mRNA in the presence of chemical substance/The level of expressed mRNA in the absence of chemical substance” value (yeast gene YER119C) was 0.7 and the “The level of expressed mRNA in the presence of chemical substance/The level of expressed mRNA in the absence of chemical substance” value (yeast gene YFL011W) was 0.9. For the same compound, the “The level of expressed mRNA in the presence of chemical substance/The level of expressed mRNA in the absence of chemical substance” value (yeast gene YFL041W) was 1.1, the “The level of expressed mRNA in the presence of chemical substance/The level of expressed mRNA in the absence of chemical substance” value (yeast gene YFL050C) was 0.9 and the “The level of expressed mRNA in the presence of chemical substance/The level of expressed mRNA in the absence of chemical substance” value (yeast gene YFL054C) was 1.2. The “The level of expressed mRNA in the presence of chemical substance/The level of expressed mRNA in the absence of chemical substance” value (yeast gene YFL055W) was 0.9, the “The level of expressed mRNA in the presence of chemical substance/The level of expressed mRNA in the absence of chemical substance” value (yeast gene YGL006W) was 0.9 and the “The level of expressed mRNA in the presence of chemical substance/The level of expressed mRNA in the absence of chemical substance” value (yeast gene YGL008C) was 2.4. For the same compound, the “The level of expressed mRNA in the presence of chemical substance/The level of expressed mRNA in the absence of chemical substance” value (yeast gene YGL104C) was 1.1, the “The level of expressed mRNA in the presence of chemical substance/The level of expressed mRNA in the absence of chemical substance” value (yeast gene YGL167C) was 1.1 and the “The level of expressed mRNA in the presence of chemical substance/The level of expressed mRNA in the absence of chemical substance” value (yeast gene YGL255W) was 0.7. The “The level of expressed mRNA in the presence of chemical substance/The level of expressed mRNA in the absence of chemical substance” value (yeast gene YGR055W) was 0.9, the “The level of expressed mRNA in the presence of chemical substance/The level of expressed mRNA in the absence of chemical substance” value (yeast gene YGR065C) was 0.5 and the “The level of expressed mRNA in the presence of chemical substance/The level of expressed mRNA in the absence of chemical substance” value (yeast gene YGR082W) was 0.8. For the same compound, the “The level of expressed mRNA in the presence of chemical substance/The level of expressed mRNA in the absence of chemical substance” value (yeast gene YGR096W) was 0.8, the “The level of expressed mRNA in the presence of chemical substance/The level of expressed mRNA in the absence of chemical substance” value (yeast gene YGR138C) was 0.6 and the “The level of expressed mRNA in the presence of chemical substance/The level of expressed mRNA in the absence of chemical substance” value (yeast gene YGR191W) was 0.7. The “The level of expressed mRNA in the presence of chemical substance/The level of expressed mRNA in the absence of chemical substance” value (yeast gene YGR197C) was 1.2, the “The level of expressed mRNA in the presence of chemical substance/The level of expressed mRNA in the absence of chemical substance” value (yeast gene YGR224W) was 0.6 and the “The level of expressed mRNA in the presence of chemical substance/The level of expressed mRNA in the absence of chemical substance” value (yeast gene YGR260W) was 0.6.
